# Measured values published in paper PMC11267547, “Advancing drug discovery through assay development: a survey of tool compounds within the human solute carrier superfamily” (Frontiers in Pharmacology, 2024).
# How the values were obtained:
# SLC1A5 = biological target: T1, SLC1A5 (Homo sapiens, UniProt Q15758); experiment: AspSnFR biosensor assay, asparagine uptake in HEK293 cells; format: cell-based; settings: cells pretreated with 50 µM
# T1 construct: host or cells: HEK293 expressing AspSnFR, transiently transfected with gpASNase1
# T1 sequence (Q15758 whole entry): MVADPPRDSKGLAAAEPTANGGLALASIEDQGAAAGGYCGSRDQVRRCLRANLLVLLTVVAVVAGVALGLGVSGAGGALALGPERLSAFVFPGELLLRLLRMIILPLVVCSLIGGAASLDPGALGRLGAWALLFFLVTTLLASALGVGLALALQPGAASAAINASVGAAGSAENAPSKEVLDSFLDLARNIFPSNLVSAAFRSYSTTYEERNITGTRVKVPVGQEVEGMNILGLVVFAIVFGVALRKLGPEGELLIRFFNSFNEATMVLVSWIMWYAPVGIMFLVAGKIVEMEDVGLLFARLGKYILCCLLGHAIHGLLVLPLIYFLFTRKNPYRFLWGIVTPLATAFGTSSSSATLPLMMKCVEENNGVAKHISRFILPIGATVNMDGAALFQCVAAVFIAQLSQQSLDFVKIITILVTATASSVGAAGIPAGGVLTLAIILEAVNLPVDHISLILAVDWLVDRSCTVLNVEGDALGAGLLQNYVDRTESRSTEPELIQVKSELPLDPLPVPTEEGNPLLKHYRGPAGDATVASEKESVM
# Procedure: HEK293 cells expressing AspSnFR were transiently transfected with EBPF-gpASNase1, trypsinized, and resuspended in 10% dialyzed FCS/PBS. Post-treatment with test compounds or vehicle, varying concentrations of asparagine were added. After a 30-min incubation at room temperature, flow cytometry analysis was performed using the BD LSR Fortessa X-20, following the protocol previously described ([Hellweg et al., 2024]).
# SLC2A9 = SLC2A9 (Homo sapiens, UniProt Q9NRM0); experiment: Membrane potential dye-based assay, HEK293 cells stably expressing isoform-1 or -2 of SLC2A9 vs mock; format: cell-based; settings: SLC2A9 isoform-1 or -2 cells compared with non-transduced (mock) cells
# Chain of SLC2A9 (Q9NRM0 51-540 limits assumed): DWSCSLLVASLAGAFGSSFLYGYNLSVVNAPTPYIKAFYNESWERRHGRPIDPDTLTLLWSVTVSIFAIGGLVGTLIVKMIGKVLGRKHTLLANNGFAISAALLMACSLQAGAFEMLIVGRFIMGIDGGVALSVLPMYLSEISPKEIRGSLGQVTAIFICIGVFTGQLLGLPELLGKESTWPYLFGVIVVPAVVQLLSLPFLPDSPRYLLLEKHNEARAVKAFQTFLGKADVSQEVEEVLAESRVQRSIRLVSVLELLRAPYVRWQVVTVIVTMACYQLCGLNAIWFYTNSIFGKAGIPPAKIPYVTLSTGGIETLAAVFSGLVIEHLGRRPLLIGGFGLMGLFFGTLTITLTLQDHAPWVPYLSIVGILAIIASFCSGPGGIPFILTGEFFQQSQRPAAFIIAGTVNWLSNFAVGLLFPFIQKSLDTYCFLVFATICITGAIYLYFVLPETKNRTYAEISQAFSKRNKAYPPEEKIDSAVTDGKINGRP
# Procedure: FLIPR Membrane Potential Blue Dye was used to detect the compound activities for those membrane transporters that are electrogenic or whose activity is associated with changes in membrane potential, as previously described ([Jensen and BräunerOsborne, 2004]). In brief, cells are seeded at cell line-specific density in black clear-bottom poly-D-Lysine-coated 384-well plates (Greiner Bio-One) in DMEM high-glucose medium with 10% FBS, 1% P/S, and 2 mM UltraGlutamine I (25 µL/well). Furthermore, 24 h after seeding, the culture medium is removed, and the cells are loaded with 20 µL/well of 0.5 X FMP Blue Dye in assay buffer (modified Tyrode’s buffer, 130 mM NaCl, 5 mM KCl, 1 mM MgCl2, 2 mM CaCl2, 5 mM NaHCO3, and 20 mM HEPES pH 7.4). The plates are subsequently incubated for at least 30 min at room temperature in the dark. Then, 10 µL/well of test compounds and controls is added at defined concentrations (0.5% DMSO final conc.) in the FLIPR TETRA instrument (Molecular Devices), and emitted fluorescence is recorded using a λexc 510–545-nm/λem 565–625-nm filter. The dose–response curves for the 19 compounds were prepared starting from 3 µM (final top concentration), the half-log serial dilution factor. For data analysis, Genedata Screener 19.0 software was used.
# MPC2 = test system: MPC2; design: method as in GtoPdb 3023, PubMed 35278701; settings: negative logarithm of the Molar value of IC50, Ki, EC50, and Kd values; ref GtoPdb 3023, PubMed 35278701; cited from earlier work
# [1] = test system: all proteins (SLCs and non-SLCs); experiment: Selectivity entropy score against all proteins (S_other); design: species or system human
# Procedure: (§1) To assess the selectivity, a selectivity entropy score ([Uitdehaag and Zaman, 2011]) was implemented in KNIME. The entropy score was calculated twice for each compound, first against all SLCs (S_SLCs) and then against all proteins (S_other). Ideally, a low entropy value indicates a high selectivity of the inhibitor. However, as the inhibitors were not tested on a full panel of targets, but often only against one to three proteins, a low entropy value might not reflect its true selectivity. Therefore, Pareto ranking was performed using the corresponding node from the Erlwood KNIME open-source cheminformatics KNIME community extension. This ranking minimizes S_SLCs and S_other while maximizing the activity value and the count of SLCs the inhibitor was tested on.
# all SLCs = experiment: Selectivity entropy score against all SLCs (S_SLCs); design: species or system human; settings: selectivity entropy score for all activity values against SLCs
# Procedure: as §1
# SLC28A2 (CNT2) = experiment: Impedance-based TRACT assay, HEK293–JumpIn–SLC28A2 cells, adenosine response; format: cell-based, human; settings: 31.6 µM pretreatment, non-induced (-dox) cells
# ENT1 (SLC29A1) = biological target: T2, ENT1 (SLC29A1) (Homo sapiens, UniProt Q99808); experiment: Displacement assay with [3H]NBTI on human erythrocyte membranes; format: binding; settings: [3H]NBTI displacement on erythrocyte membranes and TRACT assay (Figure 1E, Supplementary Figure S1)
# T2 construct: from tissue; host or cells: human erythrocyte membranes
# T2 sequence (Q99808 whole entry): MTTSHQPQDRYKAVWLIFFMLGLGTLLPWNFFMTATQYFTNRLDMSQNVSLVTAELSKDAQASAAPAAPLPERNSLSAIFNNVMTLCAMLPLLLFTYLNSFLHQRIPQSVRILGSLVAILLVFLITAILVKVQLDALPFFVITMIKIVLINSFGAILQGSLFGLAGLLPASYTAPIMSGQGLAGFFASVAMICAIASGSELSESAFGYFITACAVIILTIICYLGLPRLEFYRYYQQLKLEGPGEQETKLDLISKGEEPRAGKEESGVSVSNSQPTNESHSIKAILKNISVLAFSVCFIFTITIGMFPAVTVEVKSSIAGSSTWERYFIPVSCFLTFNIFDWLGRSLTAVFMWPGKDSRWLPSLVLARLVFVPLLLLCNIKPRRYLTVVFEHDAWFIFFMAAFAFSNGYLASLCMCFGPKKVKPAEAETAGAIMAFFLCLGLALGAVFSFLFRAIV
# Procedure: Displacement assay with [3H]NBTI on human erythrocyte membranes expressing ENT1 (SLC29A1) was performed at 25°C, as described previously ([Vlachodimou et al., 2020]).
# GPR35 = test system: GPR35; design: method as in ChEMBL; settings: negative logarithm of the Molar value; ref ChEMBL; cited from earlier work
# PDE5A = test system: PDE5A; design: method as in ChEMBL; settings: negative logarithm of the Molar value; ref ChEMBL; cited from earlier work
# PDE10A = test system: PDE10A; design: method as in ChEMBL; settings: negative logarithm of the Molar value; ref ChEMBL; cited from earlier work
# PDE1C = test system: PDE1C; design: method as in ChEMBL; settings: negative logarithm of the Molar value; ref ChEMBL; cited from earlier work
structure (smiles),measurement,setting,value
Cc1cccc(COc2ccccc2CN(CC[C@H](N)C(=O)O)Cc2ccccc2OCc2cccc(C)c2)c1 [V-9302],effect in SLC1A5 asparagine uptake assay,SLC1A5,no effect
CCc1oc2ccccc2c1C(=O)c1cc(Br)c(O)c(Br)c1 [Benzbromarone],effect in SLC2A9 membrane potential dye assay vs mock cells,SLC2A9,unspecific SLC2A9-independent effect
O=C1CN(/N=C/c2ccc([N+](=O)[O-])o2)C(=O)N1 [nitrofurantoin],primary_SLC_act (MPC2),MPC2,5.48
same,S_other,[1],0
same,S_SLCs,all SLCs,0
Nc1ncnc2c1nc(NCc1ccc(-c3ccccc3)cc1)n2[C@@H]1O[C@H](CO)[C@@H](O)[C@H]1O [CNT2 inhibitor 1],selectivity for SLC28A2 in the TRACT assay,SLC28A2 (CNT2),not selective
same,inhibition of SLC29A1,ENT1 (SLC29A1),also inhibited SLC29A1
CCCOc1ccccc1-c1nc2nn[nH]c2c(=O)[nH]1 [zaprinast],other_targets_act (GPR35),GPR35,5.71
same,other_targets_act (PDE5A),PDE5A,5.95
same,primary_SLC_act (MPC2),MPC2,6.52
same,other_targets_act (PDE10A),PDE10A,4.66
same,S_other,[1],1.11
same,S_SLCs,all SLCs,0
same,other_targets_act (PDE1C),PDE1C,4.89
